The target in one assay is T1, ERK5 (Homo sapiens, UniProt Q13164).
T1 construct: MEF2-luciferase reporter
In words: Inhibition of Cellular ERK5 Activity (cell-based assay, MEF2 luciferase reporter in SN12C cells). To be noted: renal cancer cell line SN12C, doxycycline-induced MEKSDD, mean where repeated. The method, then:
(§1) Two assays were performed to assess the ERK5 inhibitory activity of compounds of the Examples, a cell-based assay and a cell-free biochemical assay. Where repeat measurements were taken, the value reported is a mean average.
The renal cancer cell line SN12C was transduced by a lentivirus pGreenFire1 MEF2 EF1 Neo (ref TR030VA-N) from SBI using standard infection protocol. pGreenFire1 MEF2 EF1 Neo allows the expression of luciferase gene under the control of minimal promoter with MEF2 transcriptional response elements. Cells harboring the reporter construct were selected by geneticin treatment. The selected cells were then transposed by a piggyback based plasmid pCM4007 allowing the expression of constitutively activated MEKSDD under control of TREG3 promoter, a doxycycline regulated promoter. Transposed cells were selected by puromycin treatment. Upon doxycycline treatment (1p g/ml) MEKSDD was expressed. MEKSDD activates ERK5 that phosphorylates MEF2C protein. Activated MEF2C protein can bind to its transcriptional response elements. Then the luciferase is expressed. In a 96-well plate (96F nuncleon refl37101 thermofisher), 50,000 cells were inoculated in 142.5 μl of RPMI medium containing 10% fetal calf serum, 1% glutamine, and 1 μg/ml doxycycline. After 24 hours, compounds were added in 7.5 μl culture medium (with 2% DMSO to give a final concentration of 0.1%) in order to obtain the desired concentration (0.3-1000 nM). The luciferase activity was measured using the Kit Bright Glo Luminescent Cell Assay Cat E2610 (Promega) according to the manufacturer's protocol. Luminescence was determined using 0.2 second reading/well using a Tecan SPARK. IC50 values were calculated using XLFIT5 for Microsoft Excel using method 205. The IC50 values represent the concentration of compound which inhibits the measurable luminescence signal by 50% as compared to DMSO-treated control cells.

Assay [1] concerns the target T2, ERK5 (activated catalytic domain) (Homo sapiens, UniProt Q13164).
T2 construct: purchased CarnaBiosciences 04-146
In words: Cell-Free Assay of ERK5 Inhibition (Time-Resolved FRET, 4EBP1 peptide phosphorylation). The class given is biochemical. The settings on record: ERK5 catalytic domain 4 nM, 1 mM ATP, 1 μM biotinylated 4EBP1 peptide, 30 min at 37° C.; mean where repeated; read-out: Cell-free assay (IC50 in nM). The method, then:
as §1
An assay was performed to measure the capacity of each compound to inhibit ERK5 enzymatic activity. Compound potency was evaluated by Time-Resolved Forster Resonance Energy Transfer (FRET system). The activated catalytic domain of protein ERK5 (CarnaBiosciences #04-146) was mixed at 4 nM with varying concentrations of compound and incubated for 30 minutes at room temperature. A mixture of 1 mM ATP and 1 μM biotinylated synthetic peptide was added (Biosyntan GmbH). This synthetic peptide represents amino acids 30-52 of Eukaryotic translation initiation factor 4E-binding protein 1 (see, e.g., the sequence under accession No. NP_004086.1) biotinylated at the N-terminus. After 30 minutes at 37° C., the peptide phosphorylation by ERK5 was measured by addition of FRET reagents consisting of 12.5 μg/ml Streptavidin-XL665, 1 nM Anti-P-4EBP1 antibody and 300 ng/ml Anti-rabbit-K antibody. Following 90 minutes at room temperature fluorescent signals were read on the Pherastar FSX multimod detector from BMG Labtech (Exc° 340 nm, Em1 620 nm, Em2 665 nm). The IC50 values represent the concentration of compound which inhibits the measurable fluorescence signal by 50% as compared to the DMSO only control.

The values that follow come from patent publication US20260297087A1, “Pyridoimidazolone Compounds, Preparation Thereof and Therapeutic Uses Thereof” (Sanofi, priority 2023, published 2026).

T1 sequence (Q13164 whole entry): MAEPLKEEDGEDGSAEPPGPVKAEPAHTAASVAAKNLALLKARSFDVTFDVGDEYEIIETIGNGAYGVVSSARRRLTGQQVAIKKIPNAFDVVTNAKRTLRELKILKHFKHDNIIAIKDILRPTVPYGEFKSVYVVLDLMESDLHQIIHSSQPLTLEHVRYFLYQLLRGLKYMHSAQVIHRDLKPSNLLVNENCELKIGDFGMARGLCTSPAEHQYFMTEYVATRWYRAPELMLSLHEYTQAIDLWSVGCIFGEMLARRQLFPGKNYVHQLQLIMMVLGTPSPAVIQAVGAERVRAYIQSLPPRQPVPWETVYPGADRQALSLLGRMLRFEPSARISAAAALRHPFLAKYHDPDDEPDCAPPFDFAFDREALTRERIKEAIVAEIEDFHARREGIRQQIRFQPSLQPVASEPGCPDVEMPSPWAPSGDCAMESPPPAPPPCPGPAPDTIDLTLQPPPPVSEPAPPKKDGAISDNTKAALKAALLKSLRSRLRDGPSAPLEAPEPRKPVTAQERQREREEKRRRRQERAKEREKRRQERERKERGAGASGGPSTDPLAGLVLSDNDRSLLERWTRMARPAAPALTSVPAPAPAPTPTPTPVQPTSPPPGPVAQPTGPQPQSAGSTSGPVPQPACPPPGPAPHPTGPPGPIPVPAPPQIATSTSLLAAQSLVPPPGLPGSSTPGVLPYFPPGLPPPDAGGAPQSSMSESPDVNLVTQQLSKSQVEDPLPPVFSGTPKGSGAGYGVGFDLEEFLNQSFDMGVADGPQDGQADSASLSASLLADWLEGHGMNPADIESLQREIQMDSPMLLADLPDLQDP
T2 sequence (Q13164 55-347 limits assumed): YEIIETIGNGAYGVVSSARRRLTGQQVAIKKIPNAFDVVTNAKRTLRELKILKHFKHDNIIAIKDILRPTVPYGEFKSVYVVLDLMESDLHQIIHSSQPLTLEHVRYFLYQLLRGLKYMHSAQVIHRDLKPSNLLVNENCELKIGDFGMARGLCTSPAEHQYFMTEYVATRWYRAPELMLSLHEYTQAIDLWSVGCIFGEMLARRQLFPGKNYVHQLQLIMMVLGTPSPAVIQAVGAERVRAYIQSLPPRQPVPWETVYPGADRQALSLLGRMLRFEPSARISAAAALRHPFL

In general, IC50 refers to the midpoint of a concentration-inhibition curve. In the case of `O=C(c1ccc(S(F)(F)(F)(F)F)cc1)N1CCC(n2c(=O)[nH]c3ncc(C4CCOCC4)cc32)C1` (racemic) [Example 50, (rac)-1-[1-[4-(pentafluoro-λ^6-sulfanyl)benzoyl]pyrrolidin-3-yl]-6-tetrahydropyran-4-yl-3H-imidazo[4,5-b]pyridin-2-one], the IC50 against ERK5 stood at 361 nM; in assay [1] it was 1620 nM.

On to `Nc1cc(OC(F)(F)F)ccc1C(=O)N1CCC(n2c(=O)[nH]c3ncc(OC4CCOC4)cc32)CC1` (racemic) [Example 55, (rac)-1-[1-[2-amino-4-(trifluoromethoxy)benzoyl]-4-piperidyl]-6-[tetrahydrofuran-3-yl]oxy-3H-imidazo[4,5-b]pyridin-2-one], for which the IC50 turned out to be 83 nM at ERK5 and 87 nM in assay [1].

Regarding `O=C(c1ccc(OC(F)(F)F)cc1)N1CCC(n2c(=O)[nH]c3ncc(OC4CCOC4)cc32)CC1` (racemic) [Example 56, (rac)-6-tetrahydrofuran-3-yloxy-1-[1-[4-(trifluoromethoxy)benzoyl]-4-piperidyl]-3H-imidazo[4,5-b]pyridin-2-one], the IC50 against ERK5 is 96 nM; in assay [1], 430 nM.

Regarding `Nc1cc(OC(F)(F)F)ccc1C(=O)N1CCC(n2c(=O)[nH]c3ncc(OC4CCOC4)cc32)CC1` (single isomer, unassigned; isomer 1) [Example 43, 1-[1-[2-amino-4-(trifluoromethoxy)benzoyl]-4-piperidyl]-6-[tetrahydrofuran-3-yl]oxy-3H-imidazo[4,5-b]pyridin-2-one, Isomer 1], the IC50 stood at 74 nM on ERK5 and 150 nM in assay [1].

Take `CN1CCC(Oc2cnc3[nH]c(=O)n(C4CCN(C(=O)c5ccc(OC(F)(F)F)cc5N)CC4)c3c2)C1` (single isomer, unassigned; isomer 1) [Example 47, 1-[1-[2-amino-4-(trifluoromethoxy)benzoyl]-4-piperidyl]-6-[1-methylpyrrolidin-3-yl]oxy-3H-imidazo[4,5-b]pyridin-2-one, Isomer 1]: the IC50 was 273 nM on ERK5 and 239 nM in assay [1].

For `Nc1cc(OC(F)(F)F)ccc1C(=O)N1CCC(n2c(=O)[nH]c3ncc(OC4CCOC4)cc32)CC1` (single isomer, unassigned; isomer 2) [Example 44, 1-[1-[2-amino-4-(trifluoromethoxy)benzoyl]-4-piperidyl]-6-[tetrahydrofuran-3-yl]oxy-3H-imidazo[4,5-b]pyridin-2-one, Isomer 2], the results for the IC50 (at ERK5; in assay [1]) were 169 nM and 310 nM, respectively.

Take `CN1CCC(Oc2cnc3[nH]c(=O)n(C4CCN(C(=O)c5ccc(OC(F)(F)F)cc5N)CC4)c3c2)C1` (single isomer, unassigned; isomer 2) [Example 48, 1-[1-[2-amino-4-(trifluoromethoxy)benzoyl]-4-piperidyl]-6-[1-methylpyrrolidin-3-yl]oxy-3H-imidazo[4,5-b]pyridin-2-one, Isomer 2]: the IC50 turned out to be 117 nM at ERK5 and 78 nM in assay [1].

As for `Nc1cc(OC(F)(F)F)ccc1C(=O)N1CCC(n2c(=O)[nH]c3ncc(OC4CCOCC4)cc32)CC1` [Example 1, 1-[1-[2-amino-4-(trifluoromethoxy)benzoyl]-4-piperidyl]-6-tetrahydropyran-4-yloxy-3H-imidazo[4,5-b]pyridin-2-one], the IC50 was 48 nM against ERK5 and 29 nM in assay [1].

`Nc1cc(OC(F)(F)F)ccc1C(=O)N1CCC(n2c(=O)[nH]c3ncc(C4CCOCC4)cc32)CC1` [Example 2, 1-[1-[2-amino-4-(trifluoromethoxy)benzoyl]-4-piperidyl]-6-tetrahydropyran-4-yl-3H-imidazo[4,5-b]pyridin-2-one]: the half-inhibitory concentration (IC50) against ERK5 was 68 nM; in assay [1], 48 nM.

Regarding `Nc1cc(OC(F)(F)F)ccc1C(=O)N1CCC(n2c(=O)[nH]c3ncc(N4CCOCC4)cc32)CC1` [Example 3, 1-[1-[2-amino-4-(trifluoromethoxy)benzoyl]-4-piperidyl]-6-N-morpholino-3H-imidazo[4,5-b]pyridin-2-one], the IC50 against ERK5 is 72 nM; in assay [1], 77 nM.

Consider `O=C(c1ccc(OC(F)(F)F)cc1)N1CCC(n2c(=O)[nH]c3ncc(OC4CCOCC4)cc32)CC1` [Example 4, 6-tetrahydropyran-4-yloxy-1-[1-[4-(trifluoromethoxy)benzoyl]-4-piperidyl]-3H-imidazo[4,5-b]pyridin-2-one], for which the IC50 at ERK5 worked out at 132 nM; in assay [1] it was 135 nM.

In the case of `CN1CCC(Oc2cnc3[nH]c(=O)n(C4CCN(C(=O)c5ccc(OC(F)(F)F)cc5)CC4)c3c2)CC1` [Example 5, 6-[(1-methyl-4-piperidyl)oxy]-1-[1-[4-(trifluoromethoxy)benzoyl]-4-piperidyl]-3H-imidazo[4,5-b]pyridin-2-one], the IC50 against ERK5 is 206 nM; in assay [1], 150 nM.

On to `CN1CCC(Oc2cnc3[nH]c(=O)n(C4CCN(C(=O)c5ccc(OC(F)(F)F)cc5N)CC4)c3c2)CC1` [Example 7, 1-[1-[2-amino-4-(trifluoromethoxy)benzoyl]-4-piperidyl]-6-[(1-methyl-4-piperidyl)oxy]-3H-imidazo[4,5-b]pyridin-2-one], for which the IC50 at ERK5 was 248 nM; in assay [1] it was 63 nM.

In the case of `O=C(c1ccc(OC(F)(F)F)cc1)N1CCC(n2c(=O)[nH]c3ncc(N4CCOCC4)cc32)CC1` [Example 8, 6-N-morpholino-1-[1-[4-(trifluoromethoxy)benzoyl]-4-piperidyl]-3H-imidazo[4,5-b]pyridin-2-one], the IC50 against ERK5 is 279 nM; in assay [1] it was 505 nM.

Take `Nc1cc(OC(F)(F)F)ccc1C(=O)N1CCC(n2c(=O)[nH]c3ncc(N4CCO[C@H](CO)C4)cc32)CC1` [Example 10, 1-[1-[2-amino-4-(trifluoromethoxy)benzoyl]-4-piperidyl]-6-[(2S)-2-(hydroxymethyl)morpholin-4-yl]-3H-imidazo[4,5-b]pyridin-2-one]: the IC50 against ERK5 worked out at 870 nM; in assay [1] it was 103 nM.

On to `O=C(c1ccc(OC(F)(F)F)cc1)N1CCC(n2c(=O)[nH]c3ncc(N4CCO[C@@H](CO)C4)cc32)CC1` [Example 11, 6-[(2R)-2-(hydroxymethyl)morpholin-4-yl]-1-[1-[4-(trifluoromethoxy)benzoyl]-4-piperidyl]-3H-imidazo[4,5-b]pyridin-2-one], for which the IC50 at ERK5 was determined as 1830 nM; in assay [1] it was 1050 nM.

With `O=C(c1ccc(OC(F)(F)F)cc1)N1CCC(n2c(=O)[nH]c3ncc(N4CCO[C@H](CO)C4)cc32)CC1` [Example 12, 6-[(2S)-2-(Hydroxymethyl)morpholin-4-yl]-1-[1-[4-(trifluoromethoxy)benzoyl]-4-piperidyl]-3H-imidazo[4,5-b]pyridin-2-one], the figures for the IC50 (against ERK5; in assay [1]) were 1860 nM and 442 nM, respectively.

`Nc1cc(OC(F)(F)F)ccc1C(=O)N1CCC(n2c(=O)[nH]c3ncc(N4CCO[C@@H](CO)C4)cc32)CC1` [Example 13, 1-[1-[2-Amino-4-(trifluoromethoxy)benzoyl]-4-piperidyl]-6-[(2R)-2-(hydroxymethyl)morpholin-4-yl]-3H-imidazo[4,5-b]pyridin-2-one]: the figures for the IC50 (against ERK5; in assay [1]) were 1330 nM and 225 nM, respectively.

For the compound `Nc1cc(S(F)(F)(F)(F)F)ccc1C(=O)N1CCC(n2c(=O)[nH]c3ncc(C4CCOCC4)cc32)CC1` [Example 14, 1-[1-[2-Amino-4-(pentafluoro-λ^6-sulfanyl)benzoyl]-4-piperidyl]-6-tetrahydropyran-4-yl-3H-imidazo[4,5-b]pyridin-2-one], the IC50 against ERK5 was determined as 118 nM; in assay [1], 122 nM.

Turning to `O=C(c1ccc(OC(F)(F)F)cc1)N1CCC(n2c(=O)[nH]c3ncc(C4CCCC4)cc32)CC1` [Example 17, 6-Cyclopentyl-1-[1-[4-(trifluoromethoxy)benzoyl]-4-piperidyl]-3H-imidazo[4,5-b]pyridin-2-one], the half-maximal inhibitory concentration (IC50) worked out at 178 nM against ERK5 and 198 nM in assay [1].
